US10945932B2, “Prebiotic oral care compositions containing carboxylic acids” (COLGATE-PALMOLIVE COMPANY, priority 2013, dated 2021)

Columns and labels:
Format in all cases: cell-based
Streptococcus mutans = assay: Metabolic activity, Biolog phenotype microarray; conditions: S mutans
Description: (§1) The extent of metabolic activity of the tested bacteria in the presence of the above-mentioned acids after 24 hours and 48 hours was investigated through a high throughput phenotype microarray system (PM) for microbial cells (Biolog Inc.). Each PM can contain up to 95 different biochemical compounds (e.g. organic acids) that may act as substrates for bacteria as well as one negative control, not containing the substrates. Microarray plates were used in which the different wells of each plate were pre-loaded (by the manufacturer, Biolog Inc.) with different organic acids to be tested. Each bacterial species was tested using a separate microarray plate. Thus, a single bacterial species was tested with a variety of organic acids on each particular plate. The microarrays are based on redox technology, using cell respiration as a universal reporter. […] The observation of this color change indicates which of the substrates improve the metabolic activity and health of the cells.
(§2) Each bacterial species was collected from blood agar plates (incubated for 48 hours anaerobically at 37° C.) and transferred to an IF-0 Base inoculation fluid (Biolog Inc.), which is a nutritionally poor medium. […] A 1:5 dilution of this suspension was prepared by mixing 3 mL of the 42% transmittance cell suspension with 15 mL of an inoculation fluid (which inoculation fluid was formed by mixing 11.6 mL sterile water, 62.5 mL IF-0 base inoculation fluid and 0.9 mL of the tetrazolium dye “Biolog Redox Dye mix D”), resulting in a final cell density which was equal to 85% transmittance using a BioRad SmartSpec 3000 Photometer. For each of the acids tested, the microarray plate (obtained from the supplier (Biolog Inc.) with acid already present in the relevant wells in powder form) was directly inoculated with 100 μL/well of this 85% transmittance cell suspension.
(§3) All plates were incubated in an anaerobic atmosphere at 37° C. Color changes were measured spectrophotometrically at 492 nm (Thermo Scientific Multiskan Ascent) at 24 hrs and 48 hrs using the same plate at both time points.
(§4) The controls were also carried out three times, as above.

Streptococcus sobrinus = assay: Metabolic activity, Biolog phenotype microarray; conditions: S sobrinus
Description: as §1, §2, §3, §4

Actinomyces naeslundii = assay: Metabolic activity, Biolog phenotype microarray; conditions: A naeslundii
Description: as §1, §2, §3, §4

Tannerella forsythia = assay: Metabolic activity, Biolog phenotype microarray; conditions: T forsythia
Description: as §1, §2, §3, §4

Streptococcus salivarius = assay: Metabolic activity, Biolog phenotype microarray; conditions: S salivarius
Description: as §1, §2, §3, §4

Streptococcus sanguinis = assay: Metabolic activity, Biolog phenotype microarray; conditions: S sanguinis
Description: as §1, §2, §3, §4

Porphyromonas gingivalis = assay: Metabolic activity, Biolog phenotype microarray; conditions: P gingivalis
Description: as §1, §2, §3, §4

Actinomyces viscosus = assay: Metabolic activity, Biolog phenotype microarray; conditions: A viscosus
Description: as §1, §2, §3, §4

Fusobacterium nucleatum = assay: Metabolic activity, Biolog phenotype microarray; conditions: F nucleatum
Description: as §1, §2, §3, §4

[1] = system: Aggregatibacter actinomycetemcomitans; assay: Metabolic activity, Biolog phenotype microarray; conditions: A actinomycetemcomitans
Description: as §1, §2, §3, §4

Streptococcus mitis = assay: Metabolic activity, Biolog phenotype microarray; conditions: S mitis
Description: as §1, §2, §3, §4

Streptococcus gordonii = assay: Metabolic activity, Biolog phenotype microarray; conditions: S gordonii
Description: as §1, §2, §3, §4

Veillonella parvula = assay: Metabolic activity, Biolog phenotype microarray; conditions: V parvula
Description: as §1, §2, §3, §4

Prevotella intermedia = assay: Metabolic activity, Biolog phenotype microarray; conditions: P intermedia
Description: as §1, §2, §3, §4

Capnocytophaga sputigena = assay: Metabolic activity, Biolog phenotype microarray; conditions: C sputigena
Description: as §1, §2, §3, §4

[2] = system: beneficial oral bacteria and pathogenic oral bacteria; assay: Metabolic activity, prebiotic effect over the whole panel; conditions: for prebiotic effect (metabolic activity): threshold value of 2
Description: as §1, §2, §3, §4

SMILES	metabolic activity, OD at 492 nm divided by OD of control (control = 1) (Streptococcus mutans; 24 hrs)	metabolic activity, OD at 492 nm divided by OD of control (control = 1) (Streptococcus mutans; 48 hrs)	metabolic activity, OD at 492 nm divided by OD of control (control = 1) (Streptococcus sobrinus; 24 hrs)	metabolic activity, OD at 492 nm divided by OD of control (control = 1) (Streptococcus sobrinus; 48 hrs)	metabolic activity, OD at 492 nm divided by OD of control (control = 1) (Actinomyces naeslundii; 24 hrs)	metabolic activity, OD at 492 nm divided by OD of control (control = 1) (Actinomyces naeslundii; 48 hrs)	metabolic activity, OD at 492 nm divided by OD of control (control = 1) (Tannerella forsythia; 24 hrs)	metabolic activity, OD at 492 nm divided by OD of control (control = 1) (Tannerella forsythia; 48 hrs)	metabolic activity, OD at 492 nm divided by OD of control (control = 1) (Streptococcus salivarius; 24 hrs)	metabolic activity, OD at 492 nm divided by OD of control (control = 1) (Streptococcus salivarius; 48 hrs)	metabolic activity, OD at 492 nm divided by OD of control (control = 1) (Streptococcus sanguinis; 24 hrs)	metabolic activity, OD at 492 nm divided by OD of control (control = 1) (Streptococcus sanguinis; 48 hrs)	metabolic activity, OD at 492 nm divided by OD of control (control = 1) (Porphyromonas gingivalis; 24 hrs)	metabolic activity, OD at 492 nm divided by OD of control (control = 1) (Porphyromonas gingivalis; 48 hrs)	metabolic activity, OD at 492 nm divided by OD of control (control = 1) (Actinomyces viscosus; 24 hrs)	metabolic activity, OD at 492 nm divided by OD of control (control = 1) (Actinomyces viscosus; 48 hrs)	metabolic activity, OD at 492 nm divided by OD of control (control = 1) (Fusobacterium nucleatum; 24 hrs)	metabolic activity, OD at 492 nm divided by OD of control (control = 1) (Fusobacterium nucleatum; 48 hrs)	metabolic activity, OD at 492 nm divided by OD of control (control = 1) ([1]; 24 hrs)	metabolic activity, OD at 492 nm divided by OD of control (control = 1) ([1]; 48 hrs)	further results
C[C@H](O)C(=O)O [L-lactic acid]	0.8885	0.8138	0.8282	0.7747	1.6747	1.8440	0.8509	0.8314	0.9183	0.8317	0.9076	0.8849	0.7480	0.7325	1.5404	1.7915	0.8008	0.7884	1.7850	2.2055	metabolic activity, OD at 492 nm divided by OD of control (control = 1) (Streptococcus mitis; 24 hrs): 1.0230; metabolic activity, OD at 492 nm divided by OD of control (control = 1) (Streptococcus mitis; 48 hrs): 0.9098; metabolic activity, OD at 492 nm divided by OD of control (control = 1) (Streptococcus gordonii; 24 hrs): 0.7156; metabolic activity, OD at 492 nm divided by OD of control (control = 1) (Streptococcus gordonii; 48 hrs): 0.6821; metabolic activity, OD at 492 nm divided by OD of control (control = 1) (Veillonella parvula; 24 hrs): 3.4930; metabolic activity, OD at 492 nm divided by OD of control (control = 1) (Veillonella parvula; 48 hrs): 3.0003; metabolic activity, OD at 492 nm divided by OD of control (control = 1) (Prevotella intermedia; 24 hrs): 0.9628; metabolic activity, OD at 492 nm divided by OD of control (control = 1) (Prevotella intermedia; 48 hrs): 0.9344; metabolic activity, OD at 492 nm divided by OD of control (control = 1) (Capnocytophaga sputigena; 24 hrs): 1.4435; metabolic activity, OD at 492 nm divided by OD of control (control = 1) (Capnocytophaga sputigena; 48 hrs): 1.1474; prebiotic effect (metabolic activity) ([2]; 24 hrs): exhibited prebiotic effects; speed of metabolism by beneficial versus pathogenic bacteria ([2]; value of 2 reached at 24 hrs for the beneficial but not the pathogenic bacteria): metabolized faster by the beneficial bacteria than by the pathogenic bacteria
O=C(O)C[C@H](O)C(=O)O [L-malic acid]	0.9627	0.8760	1.0506	0.9898	0.9796	0.9086	0.9252	0.9462	0.9740	0.9426	0.8788	0.9018	0.8367	0.8279	0.9803	1.0090	0.8813	0.8215	1.6257	1.9196	metabolic activity, OD at 492 nm divided by OD of control (control = 1) (Streptococcus mitis; 24 hrs): 0.9743; metabolic activity, OD at 492 nm divided by OD of control (control = 1) (Streptococcus mitis; 48 hrs): 0.8207; metabolic activity, OD at 492 nm divided by OD of control (control = 1) (Streptococcus gordonii; 24 hrs): 0.9161; metabolic activity, OD at 492 nm divided by OD of control (control = 1) (Streptococcus gordonii; 48 hrs): 0.8652; metabolic activity, OD at 492 nm divided by OD of control (control = 1) (Veillonella parvula; 24 hrs): 2.0256; metabolic activity, OD at 492 nm divided by OD of control (control = 1) (Veillonella parvula; 48 hrs): 1.5012; metabolic activity, OD at 492 nm divided by OD of control (control = 1) (Prevotella intermedia; 24 hrs): 0.9958; metabolic activity, OD at 492 nm divided by OD of control (control = 1) (Prevotella intermedia; 48 hrs): 1.0146; metabolic activity, OD at 492 nm divided by OD of control (control = 1) (Capnocytophaga sputigena; 24 hrs): 0.8764; metabolic activity, OD at 492 nm divided by OD of control (control = 1) (Capnocytophaga sputigena; 48 hrs): 0.8870; prebiotic effect (metabolic activity) ([2]; 24 hrs): exhibited prebiotic effects
O=C(O)[C@H](O)[C@@H](O)[C@H](O)[C@H](O)CO[C@H]1O[C@H](CO)[C@H](O)[C@H](O)[C@H]1O [Melibionic acid, melibionic acid]	1.1010	1.0362	1.1366	1.1222	1.2539	1.3926	1.0848	1.1865	0.9984	0.9237	1.0430	1.0832	0.8689	0.9301	1.6342	2.0904	0.9131	0.8299	0.9361	0.8912	metabolic activity, OD at 492 nm divided by OD of control (control = 1) (Streptococcus mitis; 24 hrs): 1.0443; metabolic activity, OD at 492 nm divided by OD of control (control = 1) (Streptococcus mitis; 48 hrs): 0.9983; metabolic activity, OD at 492 nm divided by OD of control (control = 1) (Streptococcus gordonii; 24 hrs): 1.0326; metabolic activity, OD at 492 nm divided by OD of control (control = 1) (Streptococcus gordonii; 48 hrs): 0.9389; metabolic activity, OD at 492 nm divided by OD of control (control = 1) (Veillonella parvula; 24 hrs): 0.8685; metabolic activity, OD at 492 nm divided by OD of control (control = 1) (Veillonella parvula; 48 hrs): 0.6981; metabolic activity, OD at 492 nm divided by OD of control (control = 1) (Prevotella intermedia; 24 hrs): 1.0625; metabolic activity, OD at 492 nm divided by OD of control (control = 1) (Prevotella intermedia; 48 hrs): 1.0988; metabolic activity, OD at 492 nm divided by OD of control (control = 1) (Capnocytophaga sputigena; 24 hrs): 0.6213; metabolic activity, OD at 492 nm divided by OD of control (control = 1) (Capnocytophaga sputigena; 48 hrs): 0.9143; prebiotic effect (metabolic activity) ([2]; 48 hrs): exhibited prebiotic effects
